The record followed here is patent US9790180B2, “Piperidine derivatives as HDAC1/2 inhibitors” (Acetylon Pharmaceuticals, Inc., priority 2014, dated 2017).

Each structure is given as a SMILES string. ≈ marks a conversion by molar mass, not a printed value.

The nature of one series: Solubility. The format is physicochemical.
A further series deals with Gata2 mRNA. Kind of series: Gata2 mRNA induction in erythroid progenitors. The format is cell-based, human. The following applies: primary erythroid progenitors, 3 days differentiation, relative to beta-actin mRNA (FIG. 7). An excerpt:
Human bone marrow derived CD34+ cells were expanded for 7 days as described by Sankaran et al., Science, vol. 322(5909), pp. 1839-42 (2008). Cells were then differentiated, in the presence of the indicated concentration of Compound 005, Compound A (another known HDAC1/2 inhibitor), or vehicle control (DMSO), for 3 days in media supporting erythropoiesis (Hu et al., “Isolation and functional characterization of human erythroblasts at distinct stages: implications for understanding of normal and disordered erythropoiesis in vivo”, Blood, vol. 121(16), pp. 3246-53 ([…])). Gata2 mRNA was determined using quantitative real time PCR and expressed relative to the level beta-actin mRNA control.

The target of the next series is hERG channel (Homo sapiens (Human), UniProt Q12809). Kind of series: hERG assay (QPatch, CHO cell line expressing hERG channels). It is filed as cell-based. Particulars: In vitro tox. On the procedure:
For hERG assays, a CHO cell line stably transfected with hERG cDNA and expressing hERG channels were seeded into a QPatch plate (Sophion) at a density of 3-8×10^6 cells/ml. The cells were voltage clamped at a holding potential of −80 mV. The hERG current was activated by depolarizing at +20 mV for 5 sec, after which the current was taken back to −50 mV for 5 sec to remove the inactivation and observe the deactivating tail current. The maximum amount of tail current size was used to determine hERG current amplitude. Six doses (30, 10, 3, 1, 0.3 and 0.1 μM) of Compound 003 were chosen to obtain fitting curves and IC50. Data were analyzed using Assay Software provided by Sophion and Graphpad Prism.
For orientation: The hERG channel carries a current that helps repolarise heart muscle cells.

Another series concerns the target HDAC1 (Homo sapiens (Human), UniProt Q13547). Kind of series: HDAC enzyme assay, HDAC1. The format is biochemical. The following applies: 24 hours pre-incubation with enzyme; read-out: IC50 (nM) HDAC1.
The next series deals with HDAC3 (Homo sapiens (Human), UniProt O15379). Kind of series: HDAC enzyme assay, HDAC3. It is filed as biochemical. The following applies: 24 hours pre-incubation with enzyme; read-out: IC50 (nM) HDAC3.
HDAC3, sequence (O15379 whole entry): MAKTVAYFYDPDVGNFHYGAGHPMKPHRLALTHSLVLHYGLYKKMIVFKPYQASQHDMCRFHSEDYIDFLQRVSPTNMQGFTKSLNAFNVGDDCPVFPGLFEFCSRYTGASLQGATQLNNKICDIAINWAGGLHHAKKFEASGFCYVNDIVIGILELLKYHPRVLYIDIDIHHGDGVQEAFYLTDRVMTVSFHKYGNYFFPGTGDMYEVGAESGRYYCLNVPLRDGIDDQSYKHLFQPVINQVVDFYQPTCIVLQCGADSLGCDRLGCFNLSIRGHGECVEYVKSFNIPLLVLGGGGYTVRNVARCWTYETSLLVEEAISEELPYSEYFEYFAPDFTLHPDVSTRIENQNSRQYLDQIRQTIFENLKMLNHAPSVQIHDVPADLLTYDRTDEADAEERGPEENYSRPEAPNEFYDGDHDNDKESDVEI
HDAC3, sequence (Q9Y618 395-489 partner): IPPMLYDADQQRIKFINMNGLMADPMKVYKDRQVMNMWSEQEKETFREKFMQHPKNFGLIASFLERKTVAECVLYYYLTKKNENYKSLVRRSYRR
The test system of series [1] is bacterial tester strains TA98, TA100, TA1535 and TA97a and E. coli tester strain WP2 uvrA. Kind of series: Ames genotoxicity (bacterial reverse mutation). The following applies: In vitro tox. On the procedure:
For genotoxicity, bacterial tester strains TA98, TA100, TA1535 and TA97a as described by Ames et al. (1975) and the E. coli tester strain WP2 uvrA as described by Green and Muriel (1976) were incubated with Compound 003 at 250, 75, 25, 7.5, 2.5, 0.75, 0.25, and 0.075 μg/well in 24 well plates either with or without liver homogenate (S9) purchased commercially (MolTox; Boone, N.C.) prepared from male Sprague Dawley rats that have been injected intraperitonealy with Aroclor 1254 (200 mg/mL in corn oil), at a dose of 500 mg/kg, 5 days before sacrifice. Mutagenicity is evaluated by counting the number of colonies that form on non-permissive media.

The test system of series [2] is CYP1A2, CYP2C9, CYP2C19, CYP3A4, CYP2D6. Kind of series: Cyp inhibition in human liver microsomes. The format is in vitro ADME. The following applies: In vitro tox; human liver microsomes. The procedure:
For Cyp inhibition, human live microsomes from BD Gentest were incubated with Compound 003 (10, 3.33, 1.11, 0.37, 0.12, 0.04, 0.01 μM) and substrate (CYP1A2: Phenacetin at 30 μM; CYP2C9: Diclofenac at 10 μM; CYP2C19: S-Mephenytoin at 35 μM; CYP3A4: Midazolam at 5 μM and Testosterone at 80 μM; CYP2D6: Bufuralol at 10 μM) for the following incubation times: CYP1A2, 2C9, 2D6: 10 minutes, 37° C.; CYP2C19: 45 minutes, 37° C.; CYP3A4: 5 minutes, 37° C. Substrate conversion was measured by liquid chromatography/mass spectrometry/mass spectrometry (LC/MS/MS). Inhibition was calculated by curve fitting in Graph Pad Prism.

Series [3] is described as follows: Rat cassette pharmacokinetics. It is filed as in vivo. Particulars: male, SD, plasma. The procedure: Male SD rats were fasted overnight. Compounds of the invention were dissolved in dimethyl acetamide at 10 times the final concentration, then Solutol HS 15 (BASF) was added to a final concentration of 10%. Finally 80% saline was added and vortexed to achieve a clear solution. For the IV dosing three animals were injected via the foot dorsal vein with 1 mg/kg compound. For the PO dosing 5 mg/kg of compound was delivered by oral gavage. Blood was collected via the tail vein into K2EDTA tubes at 5 minutes, 15 minutes, 30 minutes, 1 hour, 2 hours, 4 hours, 8 hours and 24 hours after dosing. The blood was centrifuged at 2000 g for 5 minutes at 4° C. to obtain plasma. The plasma was extracted with acetonitrile and the level of compound was analyzed by LC/MS/MS. The level of compound in plasma was calculated from a standard curve in rat plasma. The IV clearance and area under the curve were calculated using WinNonLin software. The dose adjusted area under the curve for the IV and oral dosing were used to calculate the oral bioavailability.

The mark [4] stands for this setting: rat cassette dosing, 5 mg/kg PO.

HDAC1, sequence (Q13547 whole entry): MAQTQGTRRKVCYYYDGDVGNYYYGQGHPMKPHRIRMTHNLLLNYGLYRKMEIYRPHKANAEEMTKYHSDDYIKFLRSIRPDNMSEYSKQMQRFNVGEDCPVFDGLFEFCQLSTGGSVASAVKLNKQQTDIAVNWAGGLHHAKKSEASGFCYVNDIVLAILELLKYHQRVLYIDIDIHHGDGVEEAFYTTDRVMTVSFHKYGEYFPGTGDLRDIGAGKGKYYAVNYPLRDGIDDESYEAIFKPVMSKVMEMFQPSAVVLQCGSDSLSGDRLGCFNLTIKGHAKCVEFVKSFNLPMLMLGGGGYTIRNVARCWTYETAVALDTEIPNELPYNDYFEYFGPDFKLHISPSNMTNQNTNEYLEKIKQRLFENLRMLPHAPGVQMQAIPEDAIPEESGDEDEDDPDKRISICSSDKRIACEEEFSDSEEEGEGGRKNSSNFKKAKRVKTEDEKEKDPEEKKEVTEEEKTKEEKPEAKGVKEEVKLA
hERG channel, sequence (Q12809 whole entry): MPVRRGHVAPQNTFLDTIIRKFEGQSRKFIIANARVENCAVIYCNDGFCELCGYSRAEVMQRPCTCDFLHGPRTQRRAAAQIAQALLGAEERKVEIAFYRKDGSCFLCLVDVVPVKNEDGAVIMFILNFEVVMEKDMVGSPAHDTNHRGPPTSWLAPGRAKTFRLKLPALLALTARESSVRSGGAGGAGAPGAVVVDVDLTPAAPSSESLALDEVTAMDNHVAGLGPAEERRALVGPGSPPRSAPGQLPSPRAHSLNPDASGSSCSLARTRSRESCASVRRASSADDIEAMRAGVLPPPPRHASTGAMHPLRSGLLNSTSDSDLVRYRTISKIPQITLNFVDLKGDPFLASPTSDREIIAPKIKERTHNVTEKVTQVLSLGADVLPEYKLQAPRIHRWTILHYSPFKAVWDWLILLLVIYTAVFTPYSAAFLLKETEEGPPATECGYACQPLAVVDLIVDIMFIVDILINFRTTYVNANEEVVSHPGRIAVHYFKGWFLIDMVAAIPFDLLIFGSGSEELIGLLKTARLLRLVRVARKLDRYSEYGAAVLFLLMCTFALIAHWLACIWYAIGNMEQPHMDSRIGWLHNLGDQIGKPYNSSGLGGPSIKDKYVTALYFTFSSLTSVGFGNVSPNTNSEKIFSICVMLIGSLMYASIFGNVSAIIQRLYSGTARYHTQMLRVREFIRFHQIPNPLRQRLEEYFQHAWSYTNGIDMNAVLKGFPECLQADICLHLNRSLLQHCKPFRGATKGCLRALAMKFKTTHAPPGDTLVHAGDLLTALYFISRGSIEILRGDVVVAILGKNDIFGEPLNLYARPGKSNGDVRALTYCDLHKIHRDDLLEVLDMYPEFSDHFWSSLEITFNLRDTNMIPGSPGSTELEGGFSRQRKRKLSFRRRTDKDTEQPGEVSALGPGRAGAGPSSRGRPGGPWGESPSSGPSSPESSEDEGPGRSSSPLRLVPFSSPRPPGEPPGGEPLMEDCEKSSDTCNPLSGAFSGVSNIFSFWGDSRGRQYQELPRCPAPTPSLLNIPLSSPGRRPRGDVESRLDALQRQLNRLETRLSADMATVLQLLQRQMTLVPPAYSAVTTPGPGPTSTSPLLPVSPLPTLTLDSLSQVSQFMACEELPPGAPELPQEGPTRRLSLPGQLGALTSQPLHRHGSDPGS

Regarding `CN1CCN(C(=O)N2CCC(Nc3ccc(C(=O)Nc4cc(-c5cccs5)ccc4N)cc3)CC2)CC1` [Compound 005], the solubility (commonly the concentration that dissolves in the medium under given conditions) in “Solubility” stood at 13.8 µM (≈ 7.16 µg/mL). Also, the “induction of Gata2 mRNA” value with Gata2 mRNA was “equivalent dose and time-dependent induction”. In addition, the hERG on hERG channel is 13.8 µM. In addition, on HDAC1, the IC50 (as a rule, the concentration that gives 50% inhibition) stood at 1.2 nM. Besides, the half-inhibitory concentration (IC50) at HDAC3 came to 82 nM. Also, in series [1], the Ames result is “Neg”. This molecule yielded a Cyp in series [2] of over 10 µM. The bioavailability (in general, the share of a dose that reaches the circulation, judged against a reference dose that is usually intravenous) in series [3] (5 mg/kg, rat, oral AUC to IV AUC, dose adjusted) is 79%. In addition, in series [3] (setting [4]), the exposure (AUC) – broadly, the area under the concentration-time curve, a measure of exposure – was 9160 ng·h/mL and the Cmax (as a rule, the highest concentration seen after dosing) amounted to 569 ng/mL. For the same molecule, the half-life in series [3] (rat cassette dosing, 5 mg/kg PO, read-out: PO T½ (converted)) is over 24 h. For the same molecule, in series [3] (rat cassette dosing, IV 1 mg/kg, read-out: IV Clr. (converted)), the CL renal was 6.33 mL/min/kg.
